Experimental data as given in patent US20080090805A1, “CB-1 MODULATING COMPOUNDS AND THEIR USE” (ACADIA PHARMACEUTICALS INC., priority 2005, published 2008).
Like-named read-outs stand apart in the source and are kept apart here.

Target: CB1 (mutant) (Homo sapiens, UniProt P21554)
Assay: R-SAT functional receptor assay, CB1 (mutant, truncated after amino acid 417)
Type: cell-based
Conditions: R-SAT CB1; for IC50 / pIC50: receptor form (mutant or wild-type) not stated; for Emax / % Inhibition: receptor form not stated, relative to SR141716 (100%); for Emax: read-out: % Inhibition
[1] = Appendix A, read-out: pIC50 (converted)

Sequence of CB1 (mutant) (P21554 1-417, change not shown): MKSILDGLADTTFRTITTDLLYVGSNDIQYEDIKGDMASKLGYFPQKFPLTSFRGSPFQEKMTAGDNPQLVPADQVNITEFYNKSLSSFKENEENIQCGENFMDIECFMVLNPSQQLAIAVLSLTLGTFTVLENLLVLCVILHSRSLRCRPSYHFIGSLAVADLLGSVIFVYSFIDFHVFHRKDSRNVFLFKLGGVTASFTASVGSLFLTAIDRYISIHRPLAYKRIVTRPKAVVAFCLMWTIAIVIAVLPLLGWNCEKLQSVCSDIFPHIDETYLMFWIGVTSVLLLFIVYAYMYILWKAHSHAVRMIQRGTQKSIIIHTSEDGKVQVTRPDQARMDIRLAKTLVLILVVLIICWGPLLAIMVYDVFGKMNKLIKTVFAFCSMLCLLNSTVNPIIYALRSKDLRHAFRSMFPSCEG

| Structure (SMILES) | IC50 [1] [nM] | Emax (Appendix A) [%] | pIC50 (Appendix A) | % Inhibition (Appendix A) [%] | IC50 (pIC50, Appendix A) [nM] |
| --- | --- | --- | --- | --- | --- |
| O=C(NC1CCCC1)c1ccc2c(c1)N=C(c1ccc(Cl)c(Cl)c1)c1ccccc1S2 [drawing 672] | 63.1 | 95 | – | – | – |
| O=C(NCc1cccc(Cl)c1)c1ccc2c(c1)N=C(N1CCC(F)CC1)c1ccccc1S2 [drawing 679] | 6.31 | 108 | – | – | – |
| O=C(NN1CCCCC1)c1ccc2c(c1)N=C(c1ccc(F)cc1)c1ccccc1S2 [drawing 680] | – | 84 | – | – | – |
| CCCCNC(=O)c1ccc2c(c1)N=C(N1CCCCC1)c1ccccc1S2 [drawing 683] | 6.31 | 99 | – | – | – |
| Cc1ccsc1C1=Nc2cc(C(=O)NC(C)C)ccc2Sc2ccccc21 [drawing 684] | 63.1 | 95 | – | – | – |
| O=C(NCc1ccco1)c1ccc2c(c1)N=C(c1cccc(F)c1)c1ccccc1S2 [drawing 693] | – | 104 | – | – | 6.31 |
| O=C(NN1CCCCCC1)c1ccc2c(c1)N=C(c1cccc(F)c1)c1ccccc1S2 [drawing 697] | – | 106 | – | – | 7.94 |
| O=C(NN1CCCC1)c1ccc2c(c1)N=C(c1ccc(Cl)cc1)c1ccccc1S2 [drawing 698] | 79.4 | 100 | – | – | – |
| O=C(NC1CCC(F)(F)CC1)c1ccc2c(c1)N=C(c1cccc(Cl)c1)c1ccccc1S2 [drawing 699] | – | 91 | – | – | 7.94 |
| O=C(NCc1cccc(Cl)c1)c1ccc2c(c1)N=C(c1ccc(F)cc1)c1ccccc1S2 [drawing 701] | 7.94 | 103 | – | – | – |
| O=C(NC1CCCC1)c1ccc2c(c1)N=C(c1cccc(Cl)c1)c1ccccc1S2 [drawing 702] | 79.4 | 96 | – | – | – |
| CC(C)CNC(=O)c1ccc2c(c1)N=C(c1ccc(Cl)s1)c1ccc(F)cc1S2 [drawing 703] | 7.94 | 117 | – | – | – |
| O=C(NCCC(F)(F)F)c1ccc2c(c1)N=C(c1ccc(Cl)cc1)c1ccccc1S2 [drawing 705] | – | 91 | – | – | 7.94 |
| COc1cccc(C2=Nc3cc(C(=O)NCCC(F)(F)F)ccc3Sc3ccccc32)n1 [drawing 707] | 7.94 | 104 | – | – | – |
| CCCCNC(=O)c1ccc2c(c1)N=C(c1ccc(F)cn1)c1ccccc1S2 [drawing 709] | 7.94 | 101 | – | – | – |
| CCN(CCNC(=O)c1ccc2c(c1)N=C(c1cccc(Cl)c1)c1ccccc1S2)c1ccccc1 [drawing 713] | – | 97 | – | – | 7.94 |
| O=C(NCc1ccc(F)cc1)c1ccc2c(c1)N=C(c1cccc(Cl)c1)c1ccccc1S2 [drawing 715] | – | 97 | – | – | 7.94 |
| O=C(NCc1ccncc1)c1ccc2c(c1)N=C(c1ccc(F)cc1)c1ccccc1S2 [drawing 716] | 79.4 | 101 | – | – | – |
| O=C(NC1CCCC1)c1ccc2c(c1)N=C(c1ccc(F)cc1)c1ccccc1S2 [drawing 720] | – | 117 | – | – | 79.4 |
| O=C(NN1CCCCC1)c1ccc2c(c1)N=C(c1cccc(Br)c1)c1ccccc1S2 [drawing 723] | – | 92 | – | – | 7.94 |
| COc1ccc(C2=Nc3cc(C(=O)NN4[C@H](C)CCC[C@@H]4C)ccc3Sc3ccccc32)cc1 [drawing 730] | 79.4 | 99 | – | – | – |
| O=C(NCCc1ccccc1)c1ccc2c(c1)N=C(c1cccc(Cl)c1)c1ccccc1S2 [drawing 731] | – | 104 | – | – | 7.94 |
| Cc1csc(CNC(=O)c2ccc3c(c2)N=C(c2ccc(F)cc2)c2ccccc2S3)c1 [drawing 732] | 79.4 | 80 | – | – | – |
| CCCC1=Nc2cc(C(=O)NCC(C)c3ccccc3)ccc2Sc2ccccc21 (stereo not shown) [drawing 735] | 7.94 | 104 | – | – | – |

The next lines start with results.

| IC50 [1] [nM] | Emax (Appendix A) [%] | pIC50 (Appendix A) | % Inhibition (Appendix A) [%] | Structure (SMILES) | IC50 (pIC50, Appendix A) [nM] |
| --- | --- | --- | --- | --- | --- |
| 6.31 | 107 | – | – | O=C(NCCc1ccc(Cl)cc1)c1ccc2c(c1)N=C(c1ccc(F)cc1)c1ccccc1S2 [drawing 673] | – |
| – | – | 7.2 | 113 | CC(NC(=O)c1ccc2c(c1)N=C(C1CCCCC1)c1ccccc1S2)c1ccccc1 (stereo not shown) [drawing 674] | – |
| 6.31 | 88 | – | – | CCCNC(=O)c1ccc2c(c1)N=C(c1ccc(Cl)s1)c1ccccc1S2 [drawing 675] | – |
| 63.1 | – | – | 105 | CCOC(=O)N1CCC(NC(=O)c2ccc3c(c2)N=C(c2ccc(Cl)cc2)c2ccccc2S3)CC1 [drawing 676] | – |
| 6.31 | 107 | – | – | CC(C)CNC(=O)c1ccc2c(c1)N=C(c1ccc(F)cc1)c1ccccc1S2 [drawing 677] | – |
| 63.1 | 99 | – | – | O=C(NNCC(F)(F)F)c1ccc2c(c1)N=C(c1cccc(Cl)c1)c1ccccc1S2 [drawing 678] | – |
| 6.31 | 110 | – | – | O=C(NCc1ccccc1)c1ccc2c(c1)N=C(N1CCCCC1)c1ccccc1S2 [drawing 681] | – |
| 6.31 | 114 | – | – | Cc1ccsc1C1=Nc2cc(C(=O)NCc3cccs3)ccc2Sc2ccccc21 [drawing 685] | – |
| – | – | 8.2 | 114 | O=C(NCc1cccnc1)c1ccc2c(c1)N=C(c1ccc(Cl)c(Cl)c1)c1ccccc1S2 [drawing 687] | – |
| 6.31 | 104 | – | – | O=C(NCc1ccco1)c1ccc2c(c1)N=C(c1ccc(F)cc1)c1ccccc1S2 [drawing 689] | – |
| 6.31 | 97 | – | – | O=C(NCc1ccco1)c1ccc2c(c1)N=C(c1ccc(Cl)c(Cl)c1)c1ccccc1S2 [drawing 691] | – |
| 63.1 | 121 | – | – | Cc1ccsc1C1=Nc2cc(C(=O)NCCc3cccnc3)ccc2Sc2ccccc21 [drawing 694] | – |
| 79.4 | 105 | – | – | O=C(NCc1ccncc1)c1ccc2c(c1)N=C(c1ccc(Cl)cc1)c1ccccc1S2 [drawing 696] | – |
| 79.4 | 83 | – | – | O=C(NCc1ccccc1Br)c1ccc2c(c1)N=C(c1ccccc1)c1ccccc1S2 [drawing 700] | – |
| 7.94 | 113 | – | – | CC(C)CNC(=O)c1ccc2c(c1)N=C(c1ccc(F)cn1)c1ccccc1S2 [drawing 711] | – |
| 79.4 | 106 | – | – | COc1ccc(C2=Nc3cc(C(=O)NCc4cccnc4)ccc3Sc3ccccc32)cc1 [drawing 712] | – |
| 7.94 | 106 | – | – | O=C(NCc1ccccc1)c1ccc2c(c1)N=C(c1cccc(Cl)c1)c1ccccc1S2 [drawing 717] | – |
| 7.94 | 113 | – | – | CCCCNC(=O)c1ccc2c(c1)N=C(c1cccc(F)c1)c1ccccc1S2 [drawing 719] | – |
| 7.94 | – | – | 105 | O=C(NN1CCCCCC1)c1ccc2c(c1)N=C(c1cccc(Cl)c1)c1ccccc1S2 [drawing 721] | – |
| 7.94 | 120 | – | – | C[C@@H]1CCC[C@H](C)N1NC(=O)c1ccc2c(c1)N=C(c1cccc(F)c1)c1ccccc1S2 [drawing 727] | – |
| 79.4 | 105 | – | – | COc1ccc(C2=Nc3cc(C(=O)NCc4ccncc4)ccc3Sc3ccccc32)cc1 [drawing 728] | – |
| 7.94 | 101 | – | – | CC(CNC(=O)c1ccc2c(c1)N=C(c1ccccc1)c1ccccc1S2)c1ccccc1 (stereo not shown) [drawing 729] | – |
| 7.94 | 108 | – | – | O=C(NCCc1ccc(Cl)cc1)c1ccc2c(c1)N=C(c1ccccc1)c1ccccc1S2 [drawing 733] | – |
| 79.4 | 89 | – | – | O=C(NCCc1ccccn1)c1ccc2c(c1)N=C(c1ccc(Br)cc1)c1ccccc1S2 [drawing 734] | – |
| 79.4 | 91 | – | – | O=C(NCCc1cccc(Cl)c1)c1ccc2c(c1)N=C(c1ccccc1F)c1ccccc1S2 [drawing 736] | – |
